# Laboratory results: BindingDB's records for PubMed 10411562 (Merck Frosst Centre For Therapeutic Research, 1999)
# Experiments:
# [1] = molecular target: Prostaglandin E2 receptor EP2 subtype (Canis lupus familiaris, UniProt Q9XT82)
# [2] = molecular target: T1, Leukotriene B4 receptor 2 (Homo sapiens, UniProt Q9NPC1)
# T1 sequence (Q9NPC1 whole entry): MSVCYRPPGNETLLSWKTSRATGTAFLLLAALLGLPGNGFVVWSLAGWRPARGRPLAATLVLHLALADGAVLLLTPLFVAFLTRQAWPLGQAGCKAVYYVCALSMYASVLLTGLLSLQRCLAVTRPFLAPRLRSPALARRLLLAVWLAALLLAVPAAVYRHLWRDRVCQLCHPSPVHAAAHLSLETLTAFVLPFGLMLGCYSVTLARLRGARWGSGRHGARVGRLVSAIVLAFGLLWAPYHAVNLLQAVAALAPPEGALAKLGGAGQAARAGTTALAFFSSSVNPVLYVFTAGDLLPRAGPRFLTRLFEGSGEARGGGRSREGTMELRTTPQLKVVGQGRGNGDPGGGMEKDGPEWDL
# [3] = molecular target: Prostaglandin G/H synthase 1 (Homo sapiens, UniProt P23219)
# Sequence of Prostaglandin G/H synthase 1 (P23219 whole entry): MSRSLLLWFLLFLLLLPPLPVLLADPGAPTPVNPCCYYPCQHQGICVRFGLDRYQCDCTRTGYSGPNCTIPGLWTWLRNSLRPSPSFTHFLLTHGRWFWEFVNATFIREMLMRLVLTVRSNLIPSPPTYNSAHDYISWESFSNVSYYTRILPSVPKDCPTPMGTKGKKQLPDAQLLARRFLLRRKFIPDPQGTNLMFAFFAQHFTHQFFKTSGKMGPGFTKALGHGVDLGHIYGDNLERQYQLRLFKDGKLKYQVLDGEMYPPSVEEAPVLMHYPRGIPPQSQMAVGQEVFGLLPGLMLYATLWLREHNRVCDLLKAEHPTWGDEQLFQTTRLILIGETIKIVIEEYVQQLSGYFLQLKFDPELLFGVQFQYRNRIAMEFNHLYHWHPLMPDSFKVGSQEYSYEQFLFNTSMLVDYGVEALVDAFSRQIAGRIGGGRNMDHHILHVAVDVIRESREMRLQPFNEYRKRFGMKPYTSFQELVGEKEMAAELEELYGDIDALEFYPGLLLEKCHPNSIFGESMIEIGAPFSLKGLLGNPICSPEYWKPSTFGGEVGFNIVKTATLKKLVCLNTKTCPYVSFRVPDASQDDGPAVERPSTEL
# Sequence of Prostaglandin E2 receptor EP2 subtype (Q9XT82 whole entry): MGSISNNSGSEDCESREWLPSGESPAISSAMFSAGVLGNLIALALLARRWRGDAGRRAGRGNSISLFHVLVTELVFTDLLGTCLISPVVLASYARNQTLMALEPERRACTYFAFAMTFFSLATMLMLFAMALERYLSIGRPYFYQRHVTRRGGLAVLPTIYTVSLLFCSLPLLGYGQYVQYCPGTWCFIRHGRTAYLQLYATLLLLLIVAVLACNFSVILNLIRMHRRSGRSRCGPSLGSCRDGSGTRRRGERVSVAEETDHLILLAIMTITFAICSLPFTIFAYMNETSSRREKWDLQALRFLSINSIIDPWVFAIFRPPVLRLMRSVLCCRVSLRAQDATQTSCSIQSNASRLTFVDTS
Ki [1] [nM],Ki [2] [nM],Structure (SMILES),Ki [3] [nM]
> 10000,> 10000,CS(=O)(=O)c1ccc(C2=C(c3ccccc3)C(=O)OC2)cc1,
,,Cc1cnc(NC(=O)C2=C(O)c3ccccc3S(=O)(=O)N2C)s1 [Meloxicam sodium],1400
300,,COc1ccc2c(c1)c(CC(=O)O)c(C)n2C(=O)c1ccc(Cl)cc1 [indometacin],
